From ChEMBL document CHEMBL4433229, “Development of novel macrocyclic small molecules that target CTG trinucleotide repeats” (Bioorg Med Chem, 2019)
pIC50, pKd, pKi: −log10 of the molar value. Activity calls are given as the source filed them. No cut-off for these calls is given here.

Experiments:
[1] = Binding affinity to d(CTG)2 DNA sequence (unknown origin) assessed as equilibrium dissociation constant by isothermal titration method
[2] = Binding affinity to r(CUG)4 RNA sequence (unknown origin) assessed as equilibrium dissociation constant by isothermal titration method
[3] = Inhibition of MBNL1 binding to r(CUG)12 RNA sequence (unknown origin) assessed as inhibition constant by gel electrophoresis mobility shift assay
[4] = Binding affinity to d(CTG) duplex DNA sequence (unknown origin) assessed as equilibrium dissociation constant by isothermal titration method
[5] = Binding affinity to d(CTG) T-T DNA sequence (unknown origin) assessed as equilibrium dissociation constant by isothermal titration method; settings: read-out: Kd(app)
[6] = Binding affinity to d(CTG) A-A DNA sequence (unknown origin) assessed as equilibrium dissociation constant by isothermal titration method
[7] = Binding affinity to d(CTG) C-C DNA sequence (unknown origin) assessed as equilibrium dissociation constant by isothermal titration method; settings: for pKd: read-out: Kd(app)
[8] = Binding affinity to d(CTG) U-U DNA sequence (unknown origin) assessed as equilibrium dissociation constant by isothermal titration method
HeLa [9] = test: Cytotoxicity against human HeLa cells assessed as reduction in cell viability at 0.2 to 100 uM after 72 hrs by SRB assay relative to control; assay type: cell-based
HeLa [10] = test: Cytotoxicity against human HeLa cells assessed as reduction in cell viability after 72 hrs by SRB assay relative to control; assay type: cell-based
[11] = Inhibition of d(CTG.CAG)74 DNA sequence (unknown origin) transcription at 25 uM pre-incubated for 3 hrs followed by addition of T7 polymerase and measured after 1.5 hrs by PAGE analysis
DNA [12] = test: Inhibition of random DNA sequence (unknown origin) transcription at 25 uM pre-incubated for 3 hrs followed by addition of T7 polymerase and measured after 1.5 hrs by PAGE analysis; assay type: nucleic-acid assay
DNA [13] = test: Inhibition of random DNA sequence (unknown origin) transcription at 0 to 50 uM pre-incubated for 3 hrs followed by addition of T7 polymerase and measured after 1.5 hrs by PAGE analysis; assay type: nucleic-acid assay
DNA [14] = test: Inhibition of random DNA sequence (unknown origin) transcription at 100 uM pre-incubated for 3 hrs followed by addition of T7 polymerase and measured after 1.5 hrs by PAGE analysis; assay type: nucleic-acid assay
HeLa [15] = test: Cytotoxicity against human HeLa cells assessed as reduction in cell viability at 6 uM after 72 hrs by SRB assay relative to control; assay type: cell-based
[16] = Inhibition of d(CTG.CAG)74 DNA sequence (unknown origin) transcription at 6 uM pre-incubated for 3 hrs followed by addition of T7 polymerase and measured after 1.5 hrs by PAGE analysis
[17] = Potency index, ratio of transcription inhibition of NC to transcription inhibition of compounds for d(CTG.CAG)74 DNA sequence by PAGE analysis
[18] = Selectivity ratio of cytotoxicity of compound to cytotoxicity of NC for human HeLa cells; assay type: cell-based
[19] = Selectivity ratio of transcription inhibition of random DNA sequence (unknown origin) to transcription inhibition of d(CTG.CAG)74 DNA sequence (unknown origin) by PAGE analysis
DNA [20] = test: Inhibition of random DNA sequence (unknown origin) transcription at 50 uM pre-incubated for 3 hrs followed by addition of T7 polymerase and measured after 1.5 hrs by PAGE analysis; assay type: nucleic-acid assay
[21] = Binding affinity to d(CTG) T-T DNA sequence (unknown origin) assessed as mole fraction of compound required to show 2:1 stoichiometry for compound-DNA complex at 50 uM by Job's plot analysis
[22] = Binding affinity to d(CTG) T-T 2 DNA sequence (unknown origin) assessed as equilibrium dissociation constant by isothermal titration method
[23] = Binding affinity to d(CTG) T-T 3 DNA sequence (unknown origin) assessed as equilibrium dissociation constant by isothermal titration method
HeLa [24] = test: Cytotoxicity against human HeLa cells assessed as reduction in cell viability at 25 uM after 72 hrs by SRB assay relative to control; assay type: cell-based
[25] = Binding affinity to d(CTG) T-T DNA sequence (unknown origin) assessed as mole fraction of compound required to show 1:1 stoichiometry for compound-DNA complex at 50 uM by Job's plot analysis
[26] = Binding affinity to d(CTG) T-T DNA sequence (unknown origin) assessed as mole fraction of compound required to show 1.3:1 stoichiometry for compound-DNA complex at 50 uM by Job's plot analysis
[27] = Displacement of ethidium from d(CTG)2 DNA sequence (unknown origin) and measured by fluorescence method relative to NC
[28] = Binding affinity to r(CUG)12 RNA sequence (unknown origin) assessed as equilibrium dissociation constant by isothermal titration method

Structure (SMILES) | Kd(app) [4] | pKd [5] | Kd(app) [6] | Kd(app) [8] | inhibition [11] | Selectivity ratio [17] | Selectivity ratio [19] | Activity (HeLa [9]) | selectivity ratio [18] | other results
COc1ccc2nc3cc(Cl)ccc3c(NCCCCNc3nc(N)nc(N)n3)c2c1 | – | – | – | – | – | – | – | – | – | pKd [1]: 6.40 to 6.52; pKd [2]: 6.40 to 6.52; pKi [3]: 5.22
Nc1nc2nc(n1)NCCCCCNc1c3ccccc3nc3c(cccc13)C(=O)NCCCCCN2 | – | – | – | – | – | – | – | Toxic | 10 | –
Nc1nc2nc(n1)NCCCNc1c3ccccc3nc3c(cccc13)C(=O)NCCCN2 | inactive | 4.74 | inactive | inactive | 60% | 4 | 3 | – | 10 | Activity (mole fraction) [21]: 0.68; pKd [22]: 4.70; Kd(app) [7]: inactive; pKd [23]: 4.82; Activity (HeLa [24]): Non-Toxic; inhibition (DNA [14]): 45%; Activity (mole fraction) [25]: 0.5; Activity (mole fraction) [26]: 0.57; Activity [27]: Active
CNC(=O)c1cccc2c(NCCCCNc3nc(N)nc(N)n3)c3ccccc3nc12 | – | 5.24 | – | – | 35% | – | 3 | – | – | pKd ([4]; read-out: Kd(app)): 4.16; pKd [7]: 3.80; pKd ([8]; read-out: Kd(app)): 4.75; inhibition (DNA [20]): 45%
N=C(NCCCCNc1nc(N)nc(N)n1)c1ccc(C(=N)NCCCCNc2nc(N)nc(N)n2)cc1 | – | – | – | – | – | – | – | – | – | pKi [3]: 5.10; pKi [28]: 5.10

Continued, in another order:

Kd(app) [4] | pKd [5] | Kd(app) [6] | Kd(app) [8] | inhibition [11] | Selectivity ratio [17] | Selectivity ratio [19] | Structure (SMILES) | Activity (HeLa [9]) | selectivity ratio [18] | other results
inactive | 4.70 | inactive | inactive | 85% | 4 | – | Nc1nc2nc(n1)NCCCNC(=O)c1cccc3c(c4ccccc4nc13)NCCCCN2 | Toxic | 10 | Kd(app) [7]: inactive; pIC50 (HeLa [10]): 4.70; inhibition (DNA [12]): -0%; inhibition (DNA [13]): < 10%; inhibition (DNA [14]): < 20%; Activity (HeLa [15]): < 10%; inhibition [16]: 45%
– | – | – | – | – | – | 3 | Nc1nc2nc(n1)NCCCCNc1c3ccccc3nc3c(cccc13)C(=O)NCCCCN2 | Toxic | 10 | –
inactive | 4.46 | inactive | inactive | 60% | 4 | 3 | Nc1nc2nc(n1)NCCCNc1c3ccccc3nc3c(cccc13)C(=O)NCCCCN2 | – | 10 | pKd [7]: 3.39; pIC50 (HeLa [10]): < 4.00; inhibition (DNA [20]): 45%
